Source: patent US6875575B1, “Diagnostic methods for neoplasia” (OSI Pharmaceuticals, Inc., priority 1998, dated 2005)
“Also recorded” adds a separate entry of the source. Like-named read-outs stand apart in the source and are kept apart here.

Key:
[1] = system: PDE peak B (novel cGMP-specific PDE); assay: cGMP hydrolysis by PDE peak B from SW-480 cells; format: biochemical, human
[2] = system: neoplastic cells; assay: Apoptosis induction in neoplastic cells; format: cell-based
[3] = target: T1, PDE peak A (PDE5) (Homo sapiens, UniProt O76074); assay: cGMP hydrolysis by PDE peak A from SW-480 cells; format: biochemical
T1 construct: SW-480 cells are collected and homogenized; endogenous in cells; host or cells: SW-480 cells; supernatant fractionated on DEAE-Trisacryl M, peak A

[4] = system: normal mucosa; assay: Apoptosis clinical study: ALI in normal mucosa; format: in vivo, human; conditions: any of the treatment groups
Protocol: (§1) Increases in apoptosis are indicative that the neoplasia in question is sensitive to treatment with a cGMP-specific PDE inhibitor, such as sulindac sulfone (aposulind). A human in vivo aposulind-induced selective induction of apoptosis in colonic polyps is described below. Six familial polyposis patients per group were administered one of three doses of aposulind (200 mg, 400 mg which was later lowered to 200 mg for most patients in the group, or 300 mg) twice daily (BID).
Biopsies are taken from patients and used to investigate possible cellular mechanisms of apoptosis. Biopsy samples are placed in transfer media (500 ml RPMI 1640 containing 50 ml fetal calf serum, 5×10^8 units penicillin G, and 5×10^6 μg streptomycin) and kept on ice for less than 1 hour until transfer to the pathology department. Upon receipt in the pathology department, samples are removed from the transfer media and oriented mucosa up, serosa down on filter paper, placed between biopsy sponges in a tissue cassette, and fixed in 10% neutral buffered formalin for 24 hours. […]
(§2) Apoptotic and nonapoptotic cells are counted on the basis of staining and morphology. An apoptotic labeling index (ALI) is calculated by dividing the total number of apoptotic cells counted by the total number of epithelial cells counted and expressing the quotient as a percentage.

[5] = system: colonic polyps (dysplastic tissue); assay: Apoptosis clinical study: apoptotic labeling index (ALI) in polyps; format: in vivo, human
Protocol: as §1
Biopsies are taken from patients and used to investigate possible cellular mechanisms of apoptosis. Biopsy samples are placed in transfer media (500 ml RPMI 1640 containing 50 ml fetal calf serum, 5×10^8 units penicillin G, and 5×10^6 μg streptomycin) and kept on ice for less than 1 hour until transfer to the pathology department. Upon receipt in the pathology department, samples are removed from the transfer media and oriented mucosa up, serosa down on filter paper, placed between biopsy sponges in a tissue cassette, and fixed in 10% neutral buffered formalin for 24 hours. Samples are then transferred to 70% ethanol and embedded in paraffin. Samples are oriented perpendicularly to the tissue cassette during final orientation in paraffin for longitudinal crypt exposure and easy visualization of mucosa and the relation to the basement membrane.
Four micron sections of tissue were cut, mounted, deparaffinized, rehydrated in graded alcohol, and treated with pepsin (5 mg/ml) to digest protein in the tissue. Sections were washed and treated with 2% hydrogen peroxide (H2O2) in PBS to quench endogenous peroxidase and washed again. Tissue samples were then circled with a PAP pen (Research Products Int., 800-323-9814) to produce a hydrophobic barrier to concentrate reagents on the sample. […]
as §2

[6] = system: HT-29 cells; assay: Apoptosis and necrosis by morphology (acridine orange/ethidium bromide); format: cell-based; conditions: HT-29 cells treated for six days
Protocol: In one type of apoptosis assay, suspected neoplastic cells are removed from a patient. The cells are then grown in culture in the presence or absence of a cGMP-specific PDE inhibitor. Apoptotic cells are measured by combining both the attached and “floating” compartments of the cultures. The protocol for treating tumor cell cultures with PDE inhibitors and related compounds to obtain a significant amount of apoptosis has been described in the literature. (See, Piazza, G. A., et al., Cancer Research, 55:3110-16, 1995, which is incorporated herein by reference). The novel features of this assay include collecting both floating and attached cells, identification of the optimal treatment times and dose range for observing apoptosis, and identification of optimal cell culture conditions. […]
Apoptotic and necrotic cell death was determined as previously described (Duke and Cohen, In: Current Protocols in Immunology, 3.17.1-3.17.16, New York, John Wiley and Sons, 1992). […]
The diagnostic method of this invention is used to determine whether a particular neoplasia is sensitive to treatment with a cGMP-specific PDE inhibitor. The apoptosis inducing activity for a series of phosphodiesterase inhibitors, specific for different PDEs, was determined. […] Apoptosis and necrosis were determined morphologically after acridine orange and ethidium bromide labeling in accordance with the assay described, supra.

inhibition of peak A / PDE5 (in words) [3]	SMILES	inhibition of peak B / new cGMP-PDE (in words) [1]	induction of apoptosis in neoplastic cells (in words) [2]	further results
	O=C(O)C1CCN(c2nc(NCc3ccc4c(c3)OCO4)c3cc(Cl)ccc3n2)CC1 [Compound E4021]	E4021-insensitive	do not have significant apoptosis-inducing or growth-inhibiting properties	inhibition of peak B / new cGMP-PDE (in words) ([1]; listed as E402 1): relatively insensitive to inhibition
competitively inhibit	COc1cc(/C=C2/C(C)=C(CC(=O)NCc3ccccc3)c3cc(F)ccc32)cc(OC)c1OC [Compound E, (Z)-5-fluoro-2-methyl-1-(3,4,5-trimethoxybenzylidene)-3-indenylacetamide, N-benzyl]	competitively inhibit	induce apoptosis in neoplastic cells	
	CC1=C(CC(=O)O)c2cc(F)ccc2/C1=C\c1ccc(S(C)(=O)=O)cc1 [Exisulind, (Z)-5-fluoro-2-methyl-1-[[4-(methylsulfonyl)phenyl]methylene]indene-3-yl acetic acid]			normal mucosa ALI versus baseline ALI during treatment [4]: no significant change; change in ALI following treatment ([5]; 200 mg BID group): did not demonstrate any elevation in ALI; change in ALI in polyps ([5]; 300 mg BID, six months of treatment): two fold increase in ALI; change in ALI of dysplastic tissue following drug treatment ([5]; 400/200 mg BID group when uniformly dosed at 400 mg BID): two-fold elevation in ALI; apoptotic and necrotic cell death (FIG. 1) [6]: capable of causing apoptotic cell death without inducing neoplastic cell necrosis
	CC1(C)C(=O)Nc2ccc(C3=NNC(=O)CC3)cc21 [Indolidan]	relatively insensitive		
	COc1ccc(C2CNC(=O)C2)cc1OC1CCCC1 (centres unmarked) [Rolipram]	relatively insensitive		
inhibit	CSc1ccc(/C=C2/C(C)=C(CC(=O)O)c3cc(F)ccc32)cc1 [Sulindac sulfide, sulindac sulfide]	inhibit	induce apoptosis in neoplastic cells	inhibition of peak B / new cGMP-PDE (in words) ([1]; listed as sulindac sulfide): competitively inhibit; apoptotic and necrotic cell death (FIG. 1) [6]: capable of causing apoptotic cell death without inducing neoplastic cell necrosis; inhibition of peak A / PDE5 (in words) ([3]; listed as sulindac sulfide): competitively inhibit
	CCOC(=O)C1=C[C@]2(CC)CCCN3CCc4c(n1c1ccccc41)[C@@H]32 [Vinpocetine]	relatively insensitive		
competitive inhibition	CCCOc1ccccc1-c1nc2nn[nH]c2c(=O)[nH]1 [Zaprinast]	relatively insensitive to inhibition; also recorded: zaprinast-insensitive	do not have significant apoptosis-inducing or growth-inhibiting properties	

SMILES	inhibition of peak A / PDE5 (in words) [3]	inhibition of peak B / new cGMP-PDE (in words) [1]	induction of apoptosis in neoplastic cells (in words) [2]	further results
CCCc1nn(C)c2c(=O)[nH]c(-c3cc(S(=O)(=O)N4CCN(C)CC4)ccc3OCC)nc12 [Sildenafil]	inhibited activity of peak A	relatively insensitive to inhibition	do not have significant apoptosis-inducing or growth-inhibiting properties	
